Reference: PubChem BioAssay AID1996
≈ marks a conversion by molar mass, not a printed value.

Settings: buffer; pH 7.4; 200.0 µM

SMILES | solubility kinetic
COc1ccccc1OCCn1c(=O)n(C)c2ccccc21 | 42.2 µg/mL (≈ 141 µM)
Nc1nc(-c2ccccc2)c(C(=O)Nc2ccccc2)s1 | 9.4 µg/mL (≈ 31.8 µM)
CCOC(=O)c1cc2c(=O)[nH]c(C(Cl)(Cl)Cl)nc2o1 | > 48.8 µg/mL
O=[n+]1cc(-c2ccc(Cl)cc2)n([O-])c2c1CCC2 | > 39.4 µg/mL
COC(=O)c1ccc(CNC(=O)COC(=O)c2cccs2)cc1 | 10.1 µg/mL (≈ 30.3 µM)
CC(Sc1ccc([N+](=O)[O-])cn1)C(=O)Nc1nccs1 (stereo unspecified) | 5 µg/mL (≈ 16.1 µM)
O=C(NCc1ccccn1)C1CCCCC1 | > 32.7 µg/mL
CCOc1ccc(-c2nc3scc(-c4cccs4)c3c(=O)[nH]2)cc1 | < 0.4 µg/mL
COc1ccc(S(=O)(=O)NCC(=O)NC2CC2)cc1OC | > 47.2 µg/mL
O=C(Nc1ccc2c(c1)CCC2)c1cccs1 | 30.8 µg/mL (≈ 127 µM)
COc1ccc2ccccc2c1CN(C)Cc1ccccc1.O=C(O)C(=O)O | 53.1 µg/mL
NC12NC(=O)C3(O)C4C5CC(C6C5C3C61)C42 (stereo unspecified) | > 32.7 µg/mL
NS(=O)(=O)c1cc(C(=O)OCC(=O)Nc2ccc3c(c2)OCO3)ccc1Cl | 16.9 µg/mL (≈ 40.9 µM)
COc1ccc(NC(=O)COC(=O)CCc2ccc(S(=O)(=O)N3CCOCC3)cc2)c(OC)c1 | 11 µg/mL (≈ 22.3 µM)
CCOC(=O)c1c(C)[nH]c(C)c1C(=O)COC(=O)[C@@H](NC(=O)c1ccco1)C(C)C | > 62.8 µg/mL
CCOC(=O)C1(Cc2cccc(F)c2)CCN(C(=O)c2ccoc2C)CC1 | 52.2 µg/mL (≈ 140 µM)
O=C(COC(=O)C1CC1)NCCc1ccccc1 | > 37.1 µg/mL
c1ccc(N2CCN(Cc3nc4ccccc4[nH]3)CC2)nc1 | 41.3 µg/mL (≈ 141 µM)
COc1ccc(/C=C/C(=O)O)cc1S(=O)(=O)NCC1CCCO1 (stereo unspecified) | 41.3 µg/mL (≈ 121 µM)
Cc1cccc(Cl)c1OCCN1CCCC1.O=C(O)C(=O)O | > 49.5 µg/mL
O=C(COc1ccc(C(=O)O)cc1)Nc1cccc(C(F)(F)F)c1 | > 50.9 µg/mL
CC(C)(C)OC(=O)N1CCC(C(=O)NCC2CCCO2)CC1 (stereo unspecified) | > 46.9 µg/mL
O=C(CCS(=O)(=O)c1ccccc1)NC1CCCCC1 | > 44.3 µg/mL
CCCN(CCC)S(=O)(=O)c1ccc(C(=O)NCc2ccco2)cc1 | 12.7 µg/mL (≈ 34.8 µM)

SMILES | solubility kinetic
COc1ccc(CONc2ncnc3nonc23)cc1[N+](=O)[O-] | > 47.7 µg/mL
CC1(C)CC2(C)OC(=N)C1(C#N)C2(C#N)C#N (stereo unspecified) | 34 µg/mL (≈ 149 µM)
Cc1cccc(NC(=O)c2ccc(N3C(=O)C4CCCCC4C3=O)cc2)c1C (stereo unspecified) | 20.6 µg/mL (≈ 54.7 µM)
Cc1ccc(-n2c(C(C)C)nc3oc4ccccc4c(=O)c3c2=O)cc1 | 14.7 µg/mL (≈ 42.4 µM)
Cc1ccc(C)c(NC(=O)CN(C)C(=O)c2ccncc2)c1 | 39.1 µg/mL (≈ 131 µM)
COc1ccccc1NC(=O)COc1ccccc1C(=O)Nc1ccccc1 | 5.9 µg/mL (≈ 15.7 µM)
CN(C)c1cc[n+](CC(=O)Nc2ccc(OC(F)F)cc2)cc1.[Cl-] | > 53.7 µg/mL
Cc1cc2oc(C(=O)NCc3ccccc3)cc(=O)c2cc1C | 0.9 µg/mL (≈ 2.93 µM)
CC(C)Sc1sc(C(=O)O)c(-c2ccc(Cl)cc2)c1C#N | > 50.7 µg/mL
CC(=O)Oc1ccc(/C=C/c2nc3ccccc3c(=O)o2)cc1 | < 0.7 µg/mL
Nc1nc(Nc2cccc(F)c2)nc(NCCO)c1[N+](=O)[O-] | 12.8 µg/mL (≈ 41.5 µM)
Cc1cnc(C(=O)Nc2ccc(OC(F)(F)F)cc2)cn1 | 2.6 µg/mL (≈ 8.75 µM)
O=S(=O)(c1ccc2ccccc2c1)N1CCc2ccccc21 | < 0.7 µg/mL
CC(C)Cc1ccc(C(C)C(=O)Nc2ncccn2)cc1 (stereo unspecified) | 35.9 µg/mL (≈ 127 µM)
CCO/C([O-])=N/c1c[n+](N2CCOCC2)no1 | > 36.3 µg/mL
O=C(COC(=O)c1cccs1)Nc1ccc(F)c(F)c1 | 24.9 µg/mL (≈ 83.8 µM)
CC(CCc1ccc(O)cc1)NCc1ccc(Cl)cc1Cl (stereo unspecified) | > 48.6 µg/mL
COc1cccc2cc(C(=O)NCCN3CCOCC3)oc12 | > 45.7 µg/mL
COc1ccc(C(=O)COC(=O)CN2C(=O)C3CC=CCC3C2=O)c(OC)c1 (stereo unspecified) | 57.6 µg/mL (≈ 149 µM)
c1ccc(CSc2nc3ccccc3[nH]2)cc1 | 2.1 µg/mL (≈ 8.74 µM)
CCC1CCC2(CC1)NC(=O)N(CC(=O)NCc1ccccc1Cl)C2=O (stereo unspecified) | 19.9 µg/mL (≈ 52.7 µM)
Cc1ccccc1C(=O)Nc1ccc(N2CCN(C)CC2)nc1 | > 46.6 µg/mL
CCN(CC(=O)Nc1ccc2c(c1)OCCO2)CC(=O)Nc1ccc(C)c(S(=O)(=O)N(C)C)c1 | 35.3 µg/mL (≈ 72 µM)
CC(C)CC(N=Cc1c(O)c2ccccc2oc1=O)C(=O)O (stereo unspecified) | > 45.5 µg/mL

SMILES | solubility kinetic
COc1ccc(OC)c(NC(=O)COC(=O)CCc2nc3ccccc3c(=O)[nH]2)c1 | > 61.7 µg/mL
O=C(c1ccc(-c2ccccc2)cc1)N1CCN(c2ccc(F)cc2)CC1 | 2.4 µg/mL (≈ 6.66 µM)
O=C(Nc1ccc2c(c1)OCCO2)c1ccc(Cl)cc1 | 2.1 µg/mL (≈ 7.25 µM)
CCOC(=O)C1CCN(c2ncnc3c2cnn3C)CC1 | > 43.4 µg/mL
CCn1c(=O)n(CC)c2cc(NC(=O)c3ccccc3Cl)ccc21 | 50.4 µg/mL (≈ 147 µM)
O=C(Nc1ccc(Cl)cc1)C1(S(=O)(=O)c2ccccc2)CC1 | 7.7 µg/mL (≈ 22.9 µM)
O=C(c1ccc(S(=O)(=O)Nc2ccccc2Cl)cc1)N1CCCC1 | > 54.7 µg/mL
O=C(OCc1cccc(F)c1)c1ccc2c(=O)n3c(nc2c1)CCC3 | 18.5 µg/mL (≈ 54.7 µM)
CC1(C(=O)O)CCC(C(N)=O)C1(C)C (stereo unspecified) | > 29.9 µg/mL
Cc1ccc(-n2c(C)cc(=O)cc2C)cc1[N+](=O)[O-] | > 38.7 µg/mL
COc1ccc(NC(=S)Nc2cccc(C(F)(F)F)c2)c(C)c1 | 8 µg/mL (≈ 23.5 µM)
CSc1ncccc1C(=O)OCC(=O)c1ccc[nH]1 | 9.7 µg/mL (≈ 35.1 µM)
Cc1ccc(S(=O)(=O)N2CCN(C(=O)c3ccco3)CC2)cc1C | 46 µg/mL (≈ 132 µM)
CC(Cl)C(=O)N1c2ccccc2CCc2ccccc21 (stereo unspecified) | 41.8 µg/mL (≈ 146 µM)
OC(C[n+]1ccccc1)c1ccccc1.[Br-] (stereo unspecified) | > 42 µg/mL
CCCNC(=S)N1CCC(C(=O)c2ccc3c(c2)OCCO3)CC1 | 41.3 µg/mL (≈ 119 µM)
COc1cc(OC)cc(C(=O)Nc2ccc(N(C)C)c3ccccc23)c1 | < 0.4 µg/mL
O=[N+]([O-])c1ccc(CSc2ccc(S(=O)(=O)N3CCCCC3)cn2)cc1 | 2.4 µg/mL (≈ 6.1 µM)
CCCCC(CC)C(=O)Nc1ncc([N+](=O)[O-])s1 (stereo unspecified) | > 40.7 µg/mL
COc1ccc(-c2cc(C(=O)N3CCCCC3)c3ccccc3n2)cc1 | 33.5 µg/mL (≈ 96.7 µM)
COc1ccc(CCNc2ccc(S(N)(=O)=O)cn2)cc1 | 42.8 µg/mL (≈ 139 µM)
O=C(C1CC1)N1CCN(c2ccc(O)cc2)CC1 | > 36.9 µg/mL
CC(=O)c1c(-c2ccccc2)[nH]c2ccccc12 | 1.4 µg/mL (≈ 5.95 µM)
CC(=O)c1ccc(N2CCN(c3ncccn3)CC2)c([N+](=O)[O-])c1 | 39.2 µg/mL (≈ 120 µM)

SMILES | solubility kinetic
COc1ccc(Cl)cc1C(=O)NCCN1CCOCC1 | > 44.8 µg/mL
CC(=O)c1ccccc1NC(=O)CC1(CC(=O)O)CCCCC1 | > 47.6 µg/mL
O=C(O)c1nn(-c2ccccc2C(F)(F)F)cc1O | > 40.8 µg/mL
O=C(NC(=S)Nc1ccccc1N1CCCC1)c1cccs1 | 3.2 µg/mL (≈ 9.65 µM)
N#Cc1cccc(NC(=O)CNC(=O)Cc2ccccc2)c1 | 42.1 µg/mL (≈ 144 µM)
COc1cc(OC)cc(C(=O)NCc2ccc3[nH]c(C)cc3c2)c1 | 3.3 µg/mL (≈ 10.2 µM)
COc1ccccc1C(=O)Nn1c(C)nc2ccccc2c1=O | > 46.4 µg/mL
Cc1ccc(/C=C/C(=O)OCC(=O)NCCc2ccc(S(N)(=O)=O)cc2)o1 | > 58.9 µg/mL
Cc1nc(C)c(-c2csc(Nc3ccc(S(N)(=O)=O)cc3)n2)s1 | 0.3 µg/mL (≈ 0.819 µM)
CCc1cccc(CC)c1-n1c(SCC(=O)N2CCCc3ccccc32)nc(O)cc1=O | > 67.4 µg/mL
CC(=O)Nc1cccc(NC(=O)Nc2cccc3ccccc23)c1 | 0.8 µg/mL (≈ 2.5 µM)
C=CCc1c(C)c(C#N)c2nc3ccccc3n2c1N1CCCCC1 | < 0.2 µg/mL
COc1ccc(NC(=O)COc2ccc3c(c2)OCO3)cc1 | 39.5 µg/mL (≈ 131 µM)
CCCC(=O)OC/C(O)=C(\C#N)c1nc2ccccc2[nH]1 | 32.4 µg/mL (≈ 114 µM)
COC(=O)c1ccc(CO/N=C/c2ccccc2OC)cc1 | 2.6 µg/mL (≈ 8.69 µM)
Cc1ccc(-c2csc3nc[nH]c(=O)c23)cc1C | 6.6 µg/mL (≈ 25.7 µM)
CC1(C)OC2C(O1)[C@@H](CO)O[C@H]2n1cnc2c(N)ncnc21 (stereo partly specified) | > 46.1 µg/mL
CN(C)c1cccc2c(C#N)ccc(N(C)C)c12 | < 0.2 µg/mL
S=c1[nH]ccn1-c1ccc(Cl)cc1 | 29.2 µg/mL (≈ 139 µM)
N#Cc1ccccc1S(=O)(=O)N1CCN(C(=O)C2CC(=O)N(c3ccc4c(c3)OCCO4)C2)CC1 (stereo unspecified) | 68.6 µg/mL (≈ 138 µM)
CSc1ccc(Cl)c(C(=O)OCC(=O)N(C)CCC#N)c1 | > 49 µg/mL
CCN1CCC(N2CCN(c3ccc(F)cc3)CC2)CC1 | 35.5 µg/mL (≈ 122 µM)
Cc1ccc(S(=O)(=O)N2CCOCC2)cc1NC(=O)c1cc2ccccc2oc1=O | 1.1 µg/mL (≈ 2.57 µM)
O=C(NCc1ccccn1)Nc1ccc(Br)cc1 | 14.9 µg/mL (≈ 48.7 µM)

SMILES | solubility kinetic
O=C1CC(C(=O)N2CCc3ccccc32)CN1c1ccccc1 (stereo unspecified) | 9.2 µg/mL (≈ 30 µM)
O=C(CCCN1C(=O)/C(=C\c2ccccc2)SC1=S)Nc1ccccc1O | < 0.4 µg/mL
Cc1csc(=O)n1CC(=O)OCC(=O)NCc1ccccc1 | > 48.1 µg/mL
O=C(O)C1CCCN1S(=O)(=O)c1ccc(F)cc1 (stereo unspecified) | > 41 µg/mL
CN(C)C(CNC1CC(C)(C)NC(C)(C)C1)c1cccc(F)c1 (stereo unspecified) | 34.7 µg/mL (≈ 108 µM)
O=C(COC(=O)c1ccc([N+](=O)[O-])o1)Nc1ccc(N2CCOCC2)cc1 | 50.6 µg/mL (≈ 135 µM)
O=C1CSC(c2cccnc2)N1c1cccc(Cl)c1 (stereo unspecified) | 43.3 µg/mL (≈ 149 µM)
Cc1cnc(=O)[nH]c1SCc1ccc(C(F)(F)F)cc1 | 5.1 µg/mL (≈ 17 µM)
O=C(Nc1cccc2cccnc12)c1ccccc1Br | 0.4 µg/mL (≈ 1.22 µM)
Cc1cccc(NC(=O)CSc2nc3ccccc3c(=O)n2C)c1 | 0.5 µg/mL (≈ 1.47 µM)
CCCN1C(=O)/C(=C/c2nc3ccccc3c(=O)[nH]2)c2cc(C)ccc21 | < 0.2 µg/mL
COc1ccc(C(=O)NC(Cc2c[nH]c3ccccc23)C(=O)O)cc1 (stereo unspecified) | > 50.8 µg/mL
CCC(=NCCN1CCOCC1)c1c(O)n(C2CCCCC2)c(=O)[nH]c1=O | 52.6 µg/mL (≈ 139 µM)
O=C(CSc1nc2ccccc2o1)Nc1nccs1 | 2 µg/mL (≈ 6.86 µM)
O=C(COC(=O)c1cnccn1)Nc1cccc(F)c1 | > 41.3 µg/mL
COc1ccccc1NC(=O)c1cc[n+]([O-])cc1 | > 36.6 µg/mL
Cc1ccc2[nH]c(C(=O)O)c(NC(=O)[C@@H]3C[C@@H]3c3ccccc3)c2c1 | > 50.2 µg/mL
COc1cc(=O)[nH]c(SC(C)C(=O)Nc2ccc3ccccc3c2)n1 (stereo unspecified) | 0.8 µg/mL (≈ 2.25 µM)
N#Cc1ccc(-c2nc3cc(Cl)ccc3c(=O)n2O)cc1 | 44 µg/mL (≈ 148 µM)
S=C(NCCc1ccccn1)Nc1ccccc1 | 32.1 µg/mL (≈ 125 µM)
